This test has as its system NCI-H510 multicellular tumor spheroid growth, % test/control. Put plainly: Anticancer human tumor NCI-H510 cell line growth inhibition [Asc].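 As to all read-outs here: spheroids exposed to agents for 7 days.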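 As to viability, T/C: 100% = DMSO vehicle control wells.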 Particulars: for viability, T/C: stronger effect = lower value. The gist of the method: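 Complex spheroids combining tumor cells with HUVEC endothelial cells and human MSCs, at 37 degrees C, 5% CO2; agents tested alone or combined, half-log dilutions from at or near clinical Cmax, or 10 microM if Cmax unknown.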

pIC50: −log10 of the molar value. “And” between values parts separate entries of the source, which are not always exact repeats. Equal values may be shown once.

The viability, T/C is the ratio of treated to control. One may read the pIC50 as −log10 of the IC50, conventionally taken in molar units. As to `CCN1CCN(Cc2ccc(Nc3ncc(F)c(-c4cc(F)c5nc(C)n(C(C)C)c5c4)n3)nc2)CC1`, the viability, T/C (compound 0.00316 µM) was 99.7% and 83.9% and 97.2%; the viability, T/C (compound 0.01 µM) is 95.4% and 91.7% and 83.9%; the viability, T/C (compound 0.0316 µM) is 104% and 102% and 97.5%; the viability, T/C (compound 0.1 µM) is 93.1% and 78.6% and 112%; the viability, T/C (compound 0.316 µM) was 99.7% and 82.1% and 106%; the viability, T/C (compound 1 µM) was 76.2% and 98% and 106%. In addition, where the note is “curve of compound”, the pIC50 is < 6.00.
Turning to `O=C(c1ccc(F)c(F)c1Nc1ccc(I)cc1F)N1CC(O)([C@@H]2CCCCN2)C1`, the viability, T/C (compound 0.00316 µM) was 80.5% and 85.3% and 98%; the viability, T/C (compound 0.01 µM) was 119% and 91% and 90.4%; the viability, T/C (compound 0.0316 µM) is 95.7% and 106% and 86.9%; the viability, T/C (compound 0.1 µM) is 97.4% and 102% and 86.8%; the viability, T/C (compound 0.316 µM) is 110% and 89% and 87.3%; the viability, T/C (compound 1 µM) was 72.5% and 86% and 83.7%. Further, the pIC50 (curve of compound) is < 6.00.
With `Cn1ncnc1[C@H]1c2n[nH]c(=O)c3cc(F)cc(c23)N[C@@H]1c1ccc(F)cc1` + CCN1C(C(=O)NC23CCC(C(=O)O)(CC2)CC3)C(c2cccc(Cl)c2F)C2(C(=O)Nc3cc(Cl)ccc32)C12CCCCC2, the pIC50 is, setting by setting: (curve of first compound, second compound 0.03 µM) 8.11; (curve of first compound, second compound 0.0949 µM) 8.04; (curve of first compound, second compound 0.3 µM) 7.81; (curve of first compound, second compound 0.949 µM) 7.98; (curve of first compound, second compound 3 µM) 7.87. For the same compound, the viability, T/C reads like this: (second compound 0.03 µM, first compound 0.000316 µM) 114%; (second compound 0.03 µM, first compound 0.001 µM) 93.8%; (second compound 0.03 µM, first compound 0.00316 µM) 77.3%; (second compound 0.03 µM, first compound 0.01 µM) 49.5%; (second compound 0.03 µM, first compound 0.0316 µM) 6.92%; (second compound 0.03 µM, first compound 0.1 µM) 18.1%. Moreover, the viability, T/C runs as follows: (second compound 0.0949 µM, first compound 0.000316 µM) 105%; (second compound 0.0949 µM, first compound 0.001 µM) 97.6%; (second compound 0.0949 µM, first compound 0.00316 µM) 95.4%; (second compound 0.0949 µM, first compound 0.01 µM) 45.4%; (second compound 0.0949 µM, first compound 0.0316 µM) 14.7%; (second compound 0.0949 µM, first compound 0.1 µM) 10.9%. Also, the viability, T/C runs as follows: (second compound 0.3 µM, first compound 0.000316 µM) 104%; (second compound 0.3 µM, first compound 0.001 µM) 128%; (second compound 0.3 µM, first compound 0.00316 µM) 96.6%; (second compound 0.3 µM, first compound 0.01 µM) 75.8%; (second compound 0.3 µM, first compound 0.0316 µM) 9.76%; (second compound 0.3 µM, first compound 0.1 µM) 5.7%. Further, the viability, T/C was 92.5% (second compound 0.949 µM, first compound 0.000316 µM); 118% (second compound 0.949 µM, first compound 0.001 µM); 100% (second compound 0.949 µM, first compound 0.00316 µM); 50.9% (second compound 0.949 µM, first compound 0.01 µM); 13.4% (second compound 0.949 µM, first compound 0.0316 µM); 7.16% (second compound 0.949 µM, first compound 0.1 µM). Further, the viability, T/C is 109% (second compound 3 µM, first compound 0.000316 µM); 88.8% (second compound 3 µM, first compound 0.001 µM); 102% (second compound 3 µM, first compound 0.00316 µM); 64% (second compound 3 µM, first compound 0.01 µM); 6.31% (second compound 3 µM, first compound 0.0316 µM); 10.2% (second compound 3 µM, first compound 0.1 µM).
In the case of `COc1c(OCCCN2CCOCC2)ccc2c3n(c(=NC(=O)c4cnc(N)nc4)nc12)CCN3` + CNC(C)C(=O)NC1CN(S(=O)(=O)c2cccc(S(=O)(=O)N3CCC4CCC(C(=O)NC(c5ccccc5)c5ccccc5)N4C(=O)C(NC(=O)C(C)NC)C3)c2)CCC2CCC(C(=O)NC(c3ccccc3)c3ccccc3)N2C1=O, the pIC50 (curve of first compound, second compound 0.01 µM) was < 6.00; the negative-log IC50 (pIC50) (curve of first compound, second compound 0.0316 µM) is < 6.00; the pIC50 (curve of first compound, second compound 0.1 µM) is < 6.00; the negative-log IC50 (pIC50) (curve of first compound, second compound 0.316 µM) was < 6.00; the negative logarithm of the IC50 (pIC50) (curve of first compound, second compound 1 µM) was < 6.00. For the same compound, the viability, T/C was 119% (second compound 0.01 µM, first compound 0.00316 µM); 104% (second compound 0.01 µM, first compound 0.01 µM); 118% (second compound 0.01 µM, first compound 0.0316 µM); 130% (second compound 0.01 µM, first compound 0.1 µM); 127% (second compound 0.01 µM, first compound 0.316 µM); 128% (second compound 0.01 µM, first compound 1 µM). Further, the viability, T/C is 106% (second compound 0.0316 µM, first compound 0.00316 µM); 114% (second compound 0.0316 µM, first compound 0.01 µM); 125% (second compound 0.0316 µM, first compound 0.0316 µM); 117% (second compound 0.0316 µM, first compound 0.1 µM); 120% (second compound 0.0316 µM, first compound 0.316 µM); 113% (second compound 0.0316 µM, first compound 1 µM). Moreover, the viability, T/C is 92.2% (second compound 0.1 µM, first compound 0.00316 µM); 109% (second compound 0.1 µM, first compound 0.01 µM); 106% (second compound 0.1 µM, first compound 0.0316 µM); 128% (second compound 0.1 µM, first compound 0.1 µM); 112% (second compound 0.1 µM, first compound 0.316 µM); 125% (second compound 0.1 µM, first compound 1 µM). The viability, T/C reads like this: (second compound 0.316 µM, first compound 0.00316 µM) 115%; (second compound 0.316 µM, first compound 0.01 µM) 104%; (second compound 0.316 µM, first compound 0.0316 µM) 108%; (second compound 0.316 µM, first compound 0.1 µM) 105%; (second compound 0.316 µM, first compound 0.316 µM) 121%; (second compound 0.316 µM, first compound 1 µM) 109%. The viability, T/C (second compound 1 µM, first compound 0.00316 µM) was 107%; the viability, T/C (second compound 1 µM, first compound 0.01 µM) is 113%; the viability, T/C (second compound 1 µM, first compound 0.0316 µM) was 112%; the viability, T/C (second compound 1 µM, first compound 0.1 µM) was 139%; the viability, T/C (second compound 1 µM, first compound 0.316 µM) was 116%; the viability, T/C (second compound 1 µM, first compound 1 µM) was 110%.
